Where a name gives a salt, the structure may show the parent alone.

The first test deals with T1, Farnesyltransferase (FTase) (Bos taurus, UniProt P29702+P49355).
T1 construct: precipitation from a beef brain homogenate; from tissue; host or cells: bovine brain
T1 sequence (P49355 whole entry, one chain of several): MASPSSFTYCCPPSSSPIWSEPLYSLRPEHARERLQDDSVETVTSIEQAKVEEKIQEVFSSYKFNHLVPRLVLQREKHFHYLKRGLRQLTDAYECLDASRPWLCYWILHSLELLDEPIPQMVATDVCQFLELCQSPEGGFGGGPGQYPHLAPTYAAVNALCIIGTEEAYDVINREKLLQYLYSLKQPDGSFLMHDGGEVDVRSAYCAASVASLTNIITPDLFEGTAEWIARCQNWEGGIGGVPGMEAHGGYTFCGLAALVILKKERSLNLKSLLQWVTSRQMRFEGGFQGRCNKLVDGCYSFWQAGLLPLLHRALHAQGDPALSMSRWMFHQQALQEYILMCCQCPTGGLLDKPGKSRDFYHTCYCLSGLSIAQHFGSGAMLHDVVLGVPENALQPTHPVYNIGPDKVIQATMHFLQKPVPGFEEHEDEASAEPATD
The test can be described thus: Farnesyltransferase inhibition (scintillation proximity assay, [3H]-FPP / biotin-K-ras peptide). Type of test: biochemical, bovine.
Settings: not given
The procedure:
Farnesyltransferase (FTase) or geranylgeranyltransferase I (GGTase I) fractions were isolated from bovine brains and purified by a series of methods which separate FTase from GGTase I and GGTase I from GGTase II. The methods involved a partial purification of all three enzymes by precipitation from a beef brain homogenate with 30% to 50% saturated […] followed by chromatography on DEAE Sepharose. […] The catalytic purity of each enzyme was assayed separately with substrate acceptor proteins specific for that enzyme. After quickly freezing in liquid nitrogen, the various prenyl transferases were stored at −80° C.
The quenched reactions stood for 1 hour before analysis in a Packard TopCount scintillation counter. Purified compounds were dissolved in 100% ethanol and diluted 10-fold into the assay.
For orientation: Scintillation proximity formats need no separation of bound from free tracer.
Turning to `Cc1ccccc1-c1cc(C(NCc2ccc([N+](=O)[O-])cc2)c2cncn2C)ccc1C#N` (stereo not shown) [Example 12], the “% Inhibition at 10^−6M” value was 100%. Still for that read-out and setting: as for `Cc1ccccc1-c1cc(C(c2cncn2C)N2CCN(c3cccc(OC(F)(F)F)c3)C(=O)C2)ccc1C#N.Cl.Cl` (stereo not shown) [Example 15], the figure is 100%.

The same test, now with this note: compound at 10^−6 M; bovine FTase, 37° C., 30 minutes.
With `Cc1ccccc1-c1cc(C(Oc2ccccc2)c2cncn2C)ccc1C#N` (stereo not shown) [Example 4, 2′-methyl-5-((1-methyl-1H-imidazol-5-yl)(phenoxy)methyl)(1,1′-biphenyl)-2-carbonitrile hydrochloride], the inhibition at 1 µM came to 88%. Same read-out and setting: as for `COc1ccccc1-c1cc(C(OCc2ccccc2)c2cncn2C)ccc1C#N` (stereo not shown) [Example 5, 5-((benzyloxy)(1-methyl-1H-imidazol-5-yl)methyl)-2′-methoxy(1,1′-biphenyl)-2-carbonitrile hydrochloride], the figure is 91%. `Cn1cncc1C(OCc1ccccc1)c1ccc(C#N)c(-c2cccc(-c3ccccc3)c2)c1` (stereo not shown) [Example 6, 5-((benzyloxy)(1-methyl-1H-imidazol-5-yl)methyl)-3′-(phenyl)(1,1′-biphenyl)-2-carbonitrile hydrochloride] registered an inhibition at 1 µM of 61%. `Cl.Cn1cncc1C(OCc1ccccc1)c1ccc(C#N)c(-c2c3ccccc3cc3ccccc23)c1` (stereo not shown) [Example 7]: the “% Inhibition at 10^−6M” value came out at 92%.

In turn, `CC(C)c1ccccc1-c1cc(C(OCc2ccccc2)c2cncn2C)ccc1C#N` (stereo not shown) [Example 8, 5-((benzyloxy)(1-methyl-1H-imidazol-5-yl)methyl)-2′-isopropyl(1,1′-biphenyl)-2-carbonitrile hydrochloride] displayed an inhibition at 1 µM of 100%. In turn, `Cn1cncc1C(OCc1ccccc1)c1ccc(C#N)c(-c2ccc3c4c(cccc24)CC3)c1` (stereo not shown) [Example 9, 4-((benzyloxy)(1-methyl-1H-imidazol-5-yl)methyl)-2-(1,2-dihydro-5-acenaphthylenyl)benzonitrile hydrochloride] showed an inhibition at 1 µM of 64%. Still for that read-out and setting: as for `Cn1cncc1C(OCc1ccccc1)c1ccc(C#N)c(-c2ccccc2Cl)c1` (stereo not shown) [Example 10, 5-((benzyloxy)(1-methyl-1H-imidazol-5-yl)methyl)-2′-chloro(1,1′-biphenyl)-2-carbonitrile hydrochloride], the figure is 94%; as for `Cc1ccccc1-c1cc(C(OCc2ccccc2)c2cncn2C)ccc1C#N` (stereo not shown) [Example 11, 5-((benzyloxy)(1-methyl-1H-imidazol-5-yl)methyl)-2′-methyl(1,1′-biphenyl)-2-carbonitrile hydrochloride], 94%. On the same count and under the same terms, as for `Cn1cncc1C(NCc1ccc(C#N)cc1)c1ccc(C#N)c(-c2cccc3ccccc23)c1` (stereo not shown) [Example 13, 4-(((4-cyanobenzyl)amino)(1-methyl-1H-imidazol-5-yl)methyl)-2-(1-naphthyl)benzonitrile dihydrochloride], the figure is 100%; as for `Cn1cncc1C(OCC1CCCCC1)c1ccc(C#N)c(-c2cccc3ccccc23)c1` (stereo not shown) [Example 14, 4-((cyclohexylmethoxy)(1-methyl-1H-imidazol-5-yl)methyl)-2-(1-naphthyl)benzonitrile hydrochloride], 100%.

`Cc1ccccc1-c1cc(C(NC2CCN(C(=O)c3ccccc3)CC2)c2cncn2C)ccc1C#N` (stereo not shown) [Example 16, 5-(((1-benzoyl-4-piperidinyl)amino)(1-methyl-1H-imidazol-5-yl)methyl)-2′-methyl(1,1′-biphenyl)-2-carbonitrile dihydrochloride] registered an inhibition at 1 µM of 100%. Turning to `Cl.Cl.Cn1cncc1C(NCc1ccc(S(C)(=O)=O)cc1)c1ccc(C#N)c(-c2cccc3ccccc23)c1` (stereo not shown) [Example 17], the “% Inhibition at 10^−6M” value came out at 100%. `Cn1cncc1C(OCc1ccc(C#N)cc1)c1ccc(C#N)c(-c2cccc3cccnc23)c1` (stereo not shown) [Example 18, 4-(((4-cyanobenzyl)oxy)(1-methyl-1H-imidazol-5-yl)methyl)-2-(8-quinolinyl)benzonitrile dihydrochloride] showed an inhibition at 1 µM of 100%. Take `Cn1cncc1C(OCc1ccc(C#N)cc1)c1ccc(C#N)c(-c2ccnc3ccccc23)c1` (stereo not shown) [Example 19, 4-(((4-cyanobenzyl)oxy)(1-methyl-1H-imidazol-5-yl)methyl)-2-(4-quinolinyl)benzonitrile dihydrochloride]: the inhibition at 1 µM was found to be 100%. For `Cc1ccccc1-c1cc(C(NCc2ccccc2)c2cncn2C)ccc1C#N` (stereo not shown) [Example 23, 5-((benzylamino)(1-methy-1H-imidazol-5-yl)methyl)-2′-methyl(1,1′-biphenyl)-2-carbonitrile], the “% Inhibition at 10^−6M” value was found to be 100%. Regarding `Cc1ccccc1-c1cc(C(NCC2CCCCC2)c2cncn2C)ccc1C#N` (stereo not shown) [Example 24, 5-(((cyclohexylmethyl)amino)(1-methyl-1H-imidazol-5-yl)methyl)-2′-methyl(1,1′-biphenyl)-2-carbonitrile], the inhibition at 1 µM came out at 100%.

As for `Cc1ccccc1-c1cc(C(NCc2ccc(C#N)cc2)c2cncn2C)ccc1C#N` (stereo not shown) [Example 25, 5-(((4-cyanobenzyl)amino)(1-methyl-1H-imidazol-5-yl)methyl)-2′-methyl(1,1′-biphenyl)-2-carbonitrile], testing at 1 µM gave an inhibition of 100%. For the compound `Cc1ccccc1-c1cc(CNC(c2ccc(C#N)c(-c3ccccc3C)c2)c2cncn2C)ccc1C#N` (stereo not shown) [Example 26], the “% Inhibition at 10^−6M” value turned out to be 100%. The compound `CCN(Cc1ccc([N+](=O)[O-])cc1)C(c1ccc(C#N)c(-c2ccccc2C)c1)c1cncn1C` (stereo not shown) [Example 27, 5-((ethyl(4-nitrobenzyl)amino)(1-methyl-1H-imidazol-5-yl)methyl)-2′-methyl(1,1′-biphenyl)-2-carbonitrile dihydrochloride] yielded an inhibition at 1 µM of 100%.

Consider `CCN(Cc1ccc(C#N)cc1)C(c1ccc(C#N)c(-c2ccccc2C)c1)c1cncn1C` (stereo not shown) [Example 28, 5-(((4-cyanobenzyl)(ethyl)amino)(1-methyl-1H-imidazol-5-yl)methyl)-2′-methyl(1,1′-biphenyl)-2-carbonitrile dihydrochloride], for which the inhibition at 1 µM worked out at 100%. The same measure, in the same setting: as for `CN(Cc1ccc(C#N)cc1)C(c1ccc(C#N)c(-c2cccc3ccccc23)c1)c1cncn1C` (stereo not shown) [Example 29, 4-(((4-cyanobenzyl)(methyl)amino)(1-methyl-1H-imidazol-5-yl)methyl)-2-(1-naphthyl)benzonitrile], the figure is 100%; as for `CCCCN(Cc1ccc(C#N)cc1)C(c1ccc(C#N)c(-c2cccc3ccccc23)c1)c1cncn1C` (stereo not shown) [Example 30, 4-((butyl(4-cyanobenzyl)amino)(1-methyl-1H-imidazol-5-yl)methyl)-2-(1-naphthyl)benzonitrile dihydrochloride], 100%; as for `Cn1cncc1C(NCCc1ccccc1)c1ccc(C#N)c(-c2cccc3ccccc23)c1` (stereo not shown) [Example 31, 4-((1-methyl-1H-imidazol-5-yl)(phenethylamino)methyl)-2-(1-naphthyl)benzonitrile], 100%.

The compound `Cc1ccccc1-c1cc(CN(Cc2ccccc2)Cc2cncn2C)ccc1C#N` [Example 32, 5-((benzyl((1-methyl-1H-imidazol-5-yl)methyl)amino)methyl)-2′-methyl(1,1′-biphenyl)-2-carbonitrile dihydrochloride] yielded an inhibition at 1 µM of 93%.

On to `Cn1cncc1C(NCc1ccc(C#N)c(Br)c1)c1ccc(C#N)c(-c2cccc3ccccc23)c1` (stereo not shown) [Example 33, 4-(((3-bromo-4-cyanobenzyl)amino)(1-methyl-1H-imidazol-5-yl)methyl)-2-(1-naphthyl)benzonitrile dihydrochloride], for which at 1 µM the inhibition was 100%. Compound `Cn1cncc1CN(Cc1ccc(C#N)cc1)Cc1ccc(C#N)c(-c2cccc3ccccc23)c1` [Example 34, 4-(((4-cyanobenzyl)((1-methyl-1H-imidazol-5-yl)methyl)amino)methyl)-2-(1-naphthyl)benzonitrile] displayed an inhibition at 1 µM of 100%.

The compound `Cn1cncc1C(NCc1ccc(C#N)c(Cl)c1)c1ccc(C#N)c(-c2cccc3ccccc23)c1` (stereo not shown) [Example 35, 4-(((3-chloro4-cyanobenzyl)amino)(1-methyl-1H-imidazol-5-yl)methyl)-2-(1-naphthyl)benzonitrile dihydrochloride] displayed an inhibition at 1 µM of 100%.

With `CC(NC(c1ccc(C#N)c(-c2cccc3ccccc23)c1)c1cncn1C)c1ccc(C#N)cc1` (stereo not shown) [Example 36, 4-(((1-(4-cyanophenyl)ethyl)amino)(1-methyl-1H-imidazol-5-yl)methyl)-2-(1-naphthyl)benzonitrile dihydrochloride], the inhibition at 1 µM was 100%. On the same count and under the same terms, for `Cn1cncc1C(NCc1ccc(C#N)c(I)c1)c1ccc(C#N)c(-c2cccc3ccccc23)c1` (stereo not shown) [Example 37, 4-(((4-cyano-3-iodobenzyl)amino)(1-methyl-1H-imidazol-5-yl)methyl)-2-(1-naphthyl)benzonitrile dihydrochloride] the value was 100%; for `COC(=O)c1ccc(CNC(c2ccc(C#N)c(-c3cccc4ccccc34)c2)c2cncn2C)cc1` (stereo not shown) [Example 38, methyl 4-((((4-cyano-3-(1-naphthyl)phenyl)(1-methyl-1H-imidazol-5-yl)methyl)amino)methyl)benzoate], 100%; for `Cn1cncc1C(NCc1ccc(C(=O)O)cc1)c1ccc(C#N)c(-c2cccc3ccccc23)c1` (stereo not shown) [Example 39, lithium 4-((((4-cyano-3-(1-naphthyl)phenyl)(1-methyl-1H-imidazol-5-yl)methyl)amino)methyl)benzoate], 100%. `Cn1cncc1CN(Cc1ccc(Cl)cc1)Cc1ccc(C#N)c(-c2cccc3ccccc23)c1` [Example 40, 4-(((4-chlorobenzyl)((1-methyl-1H-imidazol-5-yl)methyl)amino)methyl)-2-(1-naphthyl)benzonitrile dihydrochloride]: testing at 1 µM gave an inhibition of 100%.

What is called % Inhibition is the drop in the measured response relative to a control, in per cent. Low readings indicate little suppression, high ones strong suppression. As usually defined, the inhibition is the share of the control response that was lost under treatment. A higher inhibition goes with a strong effect.
